Experimental data as given in patent US20230118688A1, “1H-PYRAZOLO[4,3-d]PYRIMIDINE COMPOUNDS AS TOLL-LIKE RECEPTOR 7 (TLR7) AGONISTS” (BRISTOL-MYERS SQUIBB COMPANY, priority 2020, published 2023).
Read-outs that look alike come from different tables or passages of the source.

Experiments:
human TLR7 = molecular target: T1, human TLR7 (Homo sapiens, UniProt Q9NYK1); assay: Human TLR7 agonist activity reporter assay (HEK-Blue TLR7 cells, SEAP reporter); type: cell-based; settings: 18 h treatment
T1 construct: host or cells: HEK-Blue TLR7 cells (engineered human embryonic kidney cells)
T1 sequence (Q9NYK1 27-1049): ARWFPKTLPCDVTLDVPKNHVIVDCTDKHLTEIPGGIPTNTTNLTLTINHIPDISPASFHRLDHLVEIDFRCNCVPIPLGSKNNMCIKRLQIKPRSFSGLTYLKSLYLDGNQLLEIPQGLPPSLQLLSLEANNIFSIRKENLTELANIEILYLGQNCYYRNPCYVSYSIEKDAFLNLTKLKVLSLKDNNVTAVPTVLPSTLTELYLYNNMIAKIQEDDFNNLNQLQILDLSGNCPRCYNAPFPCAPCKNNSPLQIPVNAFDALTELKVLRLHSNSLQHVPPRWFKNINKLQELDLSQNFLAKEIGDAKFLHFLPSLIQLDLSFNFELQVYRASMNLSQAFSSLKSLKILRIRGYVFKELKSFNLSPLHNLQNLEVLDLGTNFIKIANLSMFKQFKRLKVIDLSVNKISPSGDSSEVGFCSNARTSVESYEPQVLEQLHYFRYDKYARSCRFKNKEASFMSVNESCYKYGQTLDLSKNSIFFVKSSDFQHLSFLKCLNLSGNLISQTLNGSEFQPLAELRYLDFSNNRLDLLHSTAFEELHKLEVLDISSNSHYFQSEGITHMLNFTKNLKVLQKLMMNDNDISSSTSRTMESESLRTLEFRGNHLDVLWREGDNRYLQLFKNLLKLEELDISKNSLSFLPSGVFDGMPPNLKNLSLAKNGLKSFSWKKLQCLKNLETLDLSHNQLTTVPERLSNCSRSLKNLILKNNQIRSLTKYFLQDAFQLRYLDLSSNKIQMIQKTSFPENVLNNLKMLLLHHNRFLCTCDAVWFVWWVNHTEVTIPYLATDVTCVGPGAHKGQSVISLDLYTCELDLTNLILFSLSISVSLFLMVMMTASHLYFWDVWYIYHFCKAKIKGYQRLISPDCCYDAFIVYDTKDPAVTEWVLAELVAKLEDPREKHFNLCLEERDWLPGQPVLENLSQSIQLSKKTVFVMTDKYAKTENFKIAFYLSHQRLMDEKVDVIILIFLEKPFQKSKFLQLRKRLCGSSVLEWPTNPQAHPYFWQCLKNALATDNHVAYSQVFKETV
Method: This procedure describes a method for assaying human TLR7 (hTLR7) agonist activity of the compounds disclosed in this specification.
HEK-Blue™ TLR7 cells were added to each well of a 384-well tissue-culture plate (15,000 cells per well) and incubated 16-18 h at 37° C., 5% CO2. Compounds (100 nl) were dispensed into wells containing the HEK-Blue™ TLR cells and the treated cells were incubated at 37° C., 5% CO2. After 18 h treatment ten microliters of freshly-prepared Quanti-Blue™ reagent (Invivogen) was added to each well, incubated for 30 min (37° C., 5% CO2) and SEAP levels measured using an Envision plate reader (OD=620 nm). The half maximal effective concentration values (EC50; compound concentration which induced a response halfway between the assay baseline and maximum) were calculated.

CD69 = assay: Induction of CD69 in human whole blood; type: cell-based; settings: 17 h, CD69 surface staining, 100% set to 1 uM resiquimod
Method: The induction of Type I interferon (IFN) MX-1 genes and the B-cell activation marker CD69 are downstream events that occur upon activation of the TLR7 pathway. The following is a human whole blood assay that measures their induction in response to a TLR7 agonist.
Heparinized human whole blood was harvested from human subjects and treated with test TLR7 agonist compounds at 1 mM. The blood was diluted with RPMI 1640 media and Echo was used to predot 10 nL per well giving a final concentration of 1 uM (10 nL in 10 uL of blood). After mixing on a shaker for 30 sec, the plates were covered and placed in a 37° C. chamber for o/n=17 hrs. Fixing/lysis buffer was prepared (5×->1× in H2O, warm at 37° C.; Cat #BD 558049) and kept the perm buffer (on ice) for later use.
For surface markers staining (CD69): prepared surface Abs: 0.045 ul hCD14-FITC (ThermoFisher Cat #MHCD1401)+0.6 ul hCD19-ef450 (ThermoFisher Cat #48-0198-42)+1.5 ul hCD69-PE (cat #BD555531)+0.855 ul FACS buffer. Added 3 ul/well, spin1000 rpm for 1 min and mixed on shaker for 30 sec, put on ice for 30 mins. Stop stimulation after 30 minutes with 70 uL of prewarmed 1× fix/lysis buffer and use Feliex mate to resuspend (15 times, change tips for each plate) and incubate at 37C for 10 minutes.
Centrifuge at 2000 rpm for 5 minutes aspirate with HCS plate washer, mix on shaker for 30 sec and then wash with 70 uL in dPBS and pelleted 2×s (2000 rpm for 5 min) and 50 ul wash in FACS buffer pelleted 1×s(2000 rpm for 5 min). Mix on shaker for 30 sec. For Intracellular markers staining (MX-1): Add 50 ul of BD Perm buffer III and mix on shaker for 30 sec. Incubate on ice for 30 minutes (in the dark). Wash with 50 uL of FACS buffer 2× (spin @2300 rpm×5 min after perm) followed by mixing on shaker for 30 sec. Resuspended in 20 ul of FACS buffer containing MX1 antibody ( ) (4812)-Alexa 647: Novus Biologicals #NBP2-43704AF647) 20 ul FACS bf+0.8 ul hlgG+0.04 ul MX-1. Spin 1000 rpm for 1 min, mix on shaker for 30se and the samples were incubated at RT in the dark for 45 minutes followed by washing 2×FACS buffer (spin @2300 rpm×5 min after perm). Resuspend 20 ul (35 uL total per well) of FACS buffer and cover with foil and place in 4° C. to read the following day. Plates were read on iQuePlus. The results were loaded into toolset and IC50 curves are generated in curve master. The y-axis 100% is set to 1 uM of resiquimod.

[1] = Table A2, read-out: hTLR7 Agonism EC50
[2] = Table A2, read-out: hWB CD69 EC50
[3] = average where assay repeated, Table A1, read-out: hTLR7 Agonism EC50
[4] = average where assay repeated, Table A1, read-out: hWB CD69 EC50

EC50 (human TLR7; [1]) [µM]	EC50 (CD69; [2]) [µM]	EC50 (human TLR7; [3]) [µM]	EC50 (CD69; [4]) [µM]	Molecule
0.116	0.0342	–	–	CCC[C@@H](CCO)Nc1nc(N)nc2cnn(Cc3cc(CN4CC(O)C4)c(F)cc3OC)c12 [Compound 166, 1-({5-[(5-amino-7-{[(3S)-1-hydroxyhexan-3-yl]amino}-1H-pyrazolo[4,3-d]pyrimidin-1-yl)methyl]-2-fluoro-4-methoxyphenyl}-methyl)azetidin-3-ol]
–	–	0.331	0.894	CCCCNc1nc(N)nc2cnn(Cc3cc(COC)ccc3OC)c12 [Compound 139, N7-butyl-1-{[2-methoxy-5-(methoxymethyl)phenyl]-methyl}-1H-pyrazolo[4,3-d]pyrimidine-5,7-diamine]
–	–	0.158	0.0989	CCCCNc1nc(N)nc2cnn(Cc3cc(CN(C)CCNC)ccc3OC)c12 [Compound 126, N7-butyl-1-{[2-methoxy-5-({methyl[2-(methylamino)-ethyl]amino}methyl)phenyl]methyl}-1H-pyrazolo[4,3-d]pyrimidine-5,7-diamine]
–	–	0.402	0.942	CCCCNc1nc(N)nc2cnn(Cc3cc(C#N)ccc3OC)c12 [Compound 145, 3-{[5-amino-7-(butyl-amino)-1H-pyrazolo[4,3-d]pyrimidin-1-yl]methyl}-4-methoxybenzonitrile]
–	–	0.234	0.0067	CCCCNc1nc(N)nc2cnn(Cc3cc(CN)ccc3OC)c12 [Compound 114, 1-{[5-(aminomethyl)-2-methoxyphenyl]methyl}-N7-butyl-1H-pyrazolo[4,3-d]pyrimidine-5,7-diamine]
–	–	0.114	0.0281	CCCCNc1nc(N)nc2cnn(Cc3cc(CN4CC(N(C)C)C4)ccc3OC)c12 [Compound 137, N7-butyl-1-[(5-{[3-(dime-thylamino)azetidin-1-yl]-methyl}-2-methoxyphenyl)methyl]-1H-pyrazolo-[4,3-d]pyrimidine-5,7-diamine]
–	–	0.294	0.0903	CCC[C@@H](CCO)Nc1nc(N)nc2c(C)nn(Cc3cc(CNC4CCOCC4)ccc3OC)c12 [Compound 162, (3S)-3-({5-amino-1-[(2-methoxy-5-{[(oxan-4-yl)amino]methyl}phenyl)methyl]-3-methyl-1H-pyrazolo[4,3-d]pyrimidin-7-yl}amino)-hexan-1-ol]
–	–	0.0275	0.135	CCCCNc1nc(N)nc2cnn(Cc3cc(CO)ccc3OC)c12 [Compound 140, (3-((5-amino-7-(butylamino)-1H-pyrazolo[4,3-d]pyrimidin-1-yl)methyl)-4-methoxyphenyl)methanol]
–	–	0.448	0.325	N7-butyl-1-{[2-methoxy-5- ({octahydropyrrolo[3,4-c]- pyrrol-2-yl}methyl)phenyl]- methyl}-1H-pyrazolo[4,3- d]pyrimidine-5,7-diamine [Compound 135]
–	–	2.07	≥ 1	CCCCNc1nc(N)nc2cnn(Cc3cc(CN4CCN(C(=O)C5CCC5)CC4)ccc3OC)c12 [Compound 138, N7-butyl-1-({5-[(4-cyclo-butanecarbonylpiperazin-1-yl)methyl]-2-methoxy-phenyl}methyl)-1H-pyrazolo-[4,3-d]pyrimidine-5,7-diamine]
0.189	0.145	–	–	CCC[C@@H](CCO)Nc1nc(N)nc2cnn(Cc3cc(CN4CCNCC4)c(F)cc3OC)c12 [Compound 167, (3S)-3-{[5-amino-1-({4-fluoro-2-methoxy-5-[(piperazin-1-yl)methyl]phenyl}methyl)-1H-pyrazolo[4,3-d]pyrimidin-7-yl]amino}hexan-1-ol]
–	–	0.768	≥ 1	CCCCNc1nc(N)nc2cnn(Cc3cc(CN4CC(F)(F)C4)ccc3OC)c12 [Compound 151, N7-butyl-1-({5-[(3,3-difluoro-azetidin-1-yl)methyl]-2-methoxyphenyl}methyl)-1H-pyrazolo[4,3-d] pyrimidine-5,7-diamine]
–	–	0.191	0.369	CCCCNc1nc(N)nc2cnn(Cc3cc(CN4CC5(C4)CN(C(=O)C4CCC4)C5)ccc3OC)c12 [Compound 125, N7-butyl-1-{[5-({6-cyclobutanecarbonyl-2,6-diazaspiro[3.3]heptan-2-yl}methyl)-2-methoxy-phenyl]methyl}-1H-pyrazolo[4,3-d]pyrimidine-5,7-diamine]
–	–	0.424	0.725	CCCCNc1nc(N)nc2cnn(Cc3cc(COCCCO)ccc3OC)c12 [Compound 143, 3-[(3-{[5-amino-7-(butyl-amino)-1H-pyrazolo[4,3-d]pyrimidin-1-yl]methyl}-4-methoxyphenyl)-methoxy]propan-1-ol]
–	–	0.267	0.119	CC[C@@H](CCO)Nc1nc(N)nc2cnn(Cc3cc(CN4CCN(C)CC4)ccc3OC)c12 [Compound 163, (3S)-3-{[5-amino-1-({2-methoxy-5-[(4-methylpiperazin-1-yl)methyl]phenyl}methyl)-1H-pyrazolo[43-d]pyrimidin-7-yl]amino}pentan-l-ol]
–	–	0.0225	0.0132	CCC[C@@H](CCO)Nc1nc(N)nc2cnn(Cc3cc(CN4CCN(C)CC4)ccc3OC)c12 [Compound 157, (S)-3-((5-amino-1-(2-methoxy-5-((4-methylpiperazin-1-yl)methyl)benzyl)-1H-pyrazolo[4,3-d]pyrimidin-7-yl)amino)hexan-1-ol]
–	–	0.665	≥ 1	CCCCNc1nc(N)nc2cnn(Cc3cc(CN(C)C(=O)CC(C)(C)O)ccc3OC)c12 [Compound 148, N-[(3-{[5-amino-7-(butyl-amino)-1H-pyrazolo[4,3-d]pyrimidin-1-yl]methyl}-4-methoxyphenyl)methyl]-3-hydroxy-N,3-dimethyl-butanamide]
–	–	0.201	0.0625	CCCCNc1nc(N)nc2cnn(Cc3cc(CN4CCNCC4)ccc3OC)c12 [Compound 134, N7-butyl-1-({2-methoxy-5-[(piperazin-1-yl)methyl]-phenyl}methyl)-1H-pyrazolo[4,3-d]pyrimidine-5,7-diamine]
